For the experiment, the target named is human sodium ion channel 1.7 (hNav1.7) (Homo sapiens, UniProt Q15858). Put plainly: Blocking effect against sodium ion channel Nav1.7, IonFlux16 auto patch clamp in hNav1.7 HEK293 cells. It is filed as cell-based. On the technique in general: In patch-clamp work, channel activity is measured electrically.
The mark [1] stands for this setting: hNav1.7 HEK293 cells, inhibition of peak current after 50 seconds treatment, eight concentrations, read-out: IC50.

For 32 compounds, IC50 results are on record in US10590078B2, “Sodium channel blockers” (Daewoong Pharmaceutical Co., Ltd., priority 2015, dated 2020).

Where two headings read alike, the source gives them in different places.

human sodium ion channel 1.7 (hNav1.7), sequence (Q15858 whole entry): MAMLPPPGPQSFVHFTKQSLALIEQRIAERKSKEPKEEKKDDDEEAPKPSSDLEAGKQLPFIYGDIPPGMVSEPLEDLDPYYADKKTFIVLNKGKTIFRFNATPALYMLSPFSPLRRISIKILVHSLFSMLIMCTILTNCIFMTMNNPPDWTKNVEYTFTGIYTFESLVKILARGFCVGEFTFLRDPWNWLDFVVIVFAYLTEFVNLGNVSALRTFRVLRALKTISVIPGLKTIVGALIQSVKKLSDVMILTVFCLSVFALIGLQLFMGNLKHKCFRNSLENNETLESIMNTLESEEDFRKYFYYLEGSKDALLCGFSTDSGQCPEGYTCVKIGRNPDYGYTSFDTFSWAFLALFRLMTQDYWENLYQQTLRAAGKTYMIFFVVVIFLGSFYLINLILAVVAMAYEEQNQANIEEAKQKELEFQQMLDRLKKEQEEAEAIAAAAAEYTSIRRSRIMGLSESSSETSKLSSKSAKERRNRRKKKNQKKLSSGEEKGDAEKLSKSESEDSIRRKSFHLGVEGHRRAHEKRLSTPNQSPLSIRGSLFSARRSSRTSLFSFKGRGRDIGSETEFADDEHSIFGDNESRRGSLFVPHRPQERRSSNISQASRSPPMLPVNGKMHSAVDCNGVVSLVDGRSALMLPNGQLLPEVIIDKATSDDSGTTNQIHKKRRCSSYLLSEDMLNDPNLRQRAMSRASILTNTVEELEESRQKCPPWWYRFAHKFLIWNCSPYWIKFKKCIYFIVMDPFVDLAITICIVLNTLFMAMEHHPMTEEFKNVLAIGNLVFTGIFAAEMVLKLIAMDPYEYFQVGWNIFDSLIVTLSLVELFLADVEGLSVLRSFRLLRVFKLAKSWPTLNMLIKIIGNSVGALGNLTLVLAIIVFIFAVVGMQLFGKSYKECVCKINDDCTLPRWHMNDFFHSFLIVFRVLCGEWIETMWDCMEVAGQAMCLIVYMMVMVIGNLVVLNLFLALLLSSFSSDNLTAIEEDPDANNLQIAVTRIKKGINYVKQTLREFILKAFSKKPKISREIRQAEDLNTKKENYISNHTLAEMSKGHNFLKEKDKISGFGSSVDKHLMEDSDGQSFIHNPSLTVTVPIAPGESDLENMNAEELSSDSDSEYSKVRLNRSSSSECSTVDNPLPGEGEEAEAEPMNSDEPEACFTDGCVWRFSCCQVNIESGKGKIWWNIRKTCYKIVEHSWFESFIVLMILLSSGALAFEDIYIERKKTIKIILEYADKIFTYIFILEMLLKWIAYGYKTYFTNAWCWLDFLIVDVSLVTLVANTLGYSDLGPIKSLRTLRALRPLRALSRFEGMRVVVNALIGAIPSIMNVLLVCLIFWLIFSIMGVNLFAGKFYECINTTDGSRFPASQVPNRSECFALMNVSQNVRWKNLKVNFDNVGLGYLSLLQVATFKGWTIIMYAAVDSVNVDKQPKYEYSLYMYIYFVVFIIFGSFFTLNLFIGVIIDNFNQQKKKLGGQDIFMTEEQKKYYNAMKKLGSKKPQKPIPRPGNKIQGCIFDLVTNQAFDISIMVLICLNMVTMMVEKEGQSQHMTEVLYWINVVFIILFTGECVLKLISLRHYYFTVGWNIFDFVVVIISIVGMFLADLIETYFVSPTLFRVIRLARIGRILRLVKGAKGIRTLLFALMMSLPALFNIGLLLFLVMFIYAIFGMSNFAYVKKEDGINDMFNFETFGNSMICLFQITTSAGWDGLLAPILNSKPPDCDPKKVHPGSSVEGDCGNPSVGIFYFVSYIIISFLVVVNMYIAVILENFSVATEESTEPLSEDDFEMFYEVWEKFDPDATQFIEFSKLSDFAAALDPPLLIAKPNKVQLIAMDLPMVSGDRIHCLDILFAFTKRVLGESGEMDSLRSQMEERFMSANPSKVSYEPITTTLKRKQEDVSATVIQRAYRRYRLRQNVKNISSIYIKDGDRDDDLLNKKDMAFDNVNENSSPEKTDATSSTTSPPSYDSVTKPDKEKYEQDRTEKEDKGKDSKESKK

For the compound `COc1cc(F)ccc1-c1cn(-c2cc(F)c(C(=O)NS(C)(=O)=O)cc2Cl)c2ncc(Cl)cc12` [Example 199, 5-chloro-4-(5-chloro-3-(4-fluoro-2-methoxyphenyl)-1H-pyrrolo[2,3-b]pyridin-1-yl)-2-fluoro-N-(methylsulfonyl)benzamide], the half-maximal inhibitory concentration (IC50) (usually the midpoint of a concentration-inhibition curve) under setting [1] stood at 200 nM.
On the same count and under the same terms, then `Cc1cc(F)ccc1-c1cn(-c2cc(F)c(C(=O)NS(C)(=O)=O)cc2Cl)c2ncc(Cl)cc12` [Example 200, 5-chloro-4-(5-chloro-3-(4-fluoro-2-methylphenyl)-1H-pyrrolo[2,3-b]pyridin-1-yl)-2-fluoro-N-(methylsulfonyl)benzamide], with 90 nM.
Still for that read-out and setting: then `CS(=O)(=O)NC(=O)c1cc(Cl)c(-n2cc(-c3ccc(Cl)cc3F)c3cc(F)cnc32)cc1F` [Example 201, 5-chloro-4-(3-(4-chloro-2-fluorophenyl)-5-fluoro-1H-pyrrolo[2,3-b]pyridin-1-yl)-2-fluoro-N-(methylsulfonyl)benzamide], with 70 nM; and `CS(=O)(=O)NC(=O)c1cc(Cl)c(-n2cc(-c3ccc(F)cc3Cl)c3cc(F)cnc32)cc1F` [Example 202, 5-chloro-4-(3-(2-chloro-4-fluorophenyl)-5-fluoro-1H-pyrrolo[2,3-b]pyridin-1-yl)-2-fluoro-N-(methylsulfonyl)benzamide], with 50 nM; and `CS(=O)(=O)NC(=O)c1cc(Cl)c(-n2cc(-c3ccc(F)cc3F)c3cc(F)cnc32)cc1F` [Example 203, 5-chloro-4-(3-(2,4-difluorophenyl)-5-fluoro-1H-pyrrolo[2,3-b]pyridin-1-yl)-2-fluoro-N-(methylsulfonyl)benzamide], with 80 nM.
Consider `CS(=O)(=O)NC(=O)c1cc(Cl)c(-n2cc(-c3ccc(Cl)cc3)c3cc(F)cnc32)cc1F` [Example 204, 5-chloro-4-(3-(4-chlorophenyl)-5-fluoro-1H-pyrrolo[2,3-b]pyridin-1-yl)-2-fluoro-N-(methylsulfonyl)benzamide], for which, under setting [1], the IC50 is 100 nM.
The same measure, in the same setting: the figure for `CS(=O)(=O)NC(=O)c1cc(Cl)c(-n2cc(-c3ccc(C(F)(F)F)cc3)c3cc(F)cnc32)cc1F` [Example 205, 5-chloro-2-fluoro-4-(5-fluoro-3-(4-(trifluoromethyl)phenyl)-1H-pyrrolo[2,3-b]pyridin-1-yl)-N-(methylsulfonyl)benzamide] is 50 nM; for `CS(=O)(=O)NC(=O)c1cc(Cl)c(-n2cc(-c3ccc(F)cc3)c3cc(F)cnc32)cc1F` [Example 206, 5-chloro-2-fluoro-4-(5-fluoro-3-(4-fluorophenyl)-1H-pyrrolo[2,3-b]pyridin-1-yl)-N-(methylsulfonyl)benzamide] it is 210 nM; for `CS(=O)(=O)NC(=O)c1cc(Cl)c(-n2cc(-c3ccccc3Cl)c3cc(F)cnc32)cc1F` [Example 207, 5-chloro-4-(3-(2-chlorophenyl)-5-fluoro-1H-pyrrolo[2,3-b]pyridin-1-yl)-2-fluoro-N-(methylsulfonyl)benzamide] it is 140 nM.
Same read-out and setting: then `CS(=O)(=O)NC(=O)c1cc(Cl)c(-n2cc(-c3cccc(Cl)c3)c3cc(F)cnc32)cc1F` [Example 208, 5-chloro-4-(3-(3-chlorophenyl)-5-fluoro-1H-pyrrolo[2,3-b]pyridin-1-yl)-2-fluoro-N-(methylsulfonyl)benzamide], with 50 nM; and `CS(=O)(=O)NC(=O)c1cc(Cl)c(-n2cc(-c3ccc(Cl)cc3Cl)c3cc(F)cnc32)cc1F` [Example 209, 5-chloro-4-(3-(2,4-dichlorophenyl)-5-fluoro-1H-pyrrolo[2,3-b]pyridin-1-yl)-2-fluoro-N-(methylsulfonyl)benzamide], with 40 nM; and `CS(=O)(=O)NC(=O)c1cc(Cl)c(-n2cc(-c3ccc(Cl)c(F)c3)c3cc(F)cnc32)cc1F` [Example 210, 5-chloro-4-(3-(4-chloro-3-fluorophenyl)-5-fluoro-1H-pyrrolo[2,3-b]pyridin-1-yl)-2-fluoro-N-(methylsulfonyl)benzamide], with 60 nM.
Take `CS(=O)(=O)NC(=O)c1cc(Cl)c(-n2cc(-c3cccc(Cl)c3F)c3cc(F)cnc32)cc1F` [Example 211, 5-chloro-4-(3-(3-chloro-2-fluorophenyl)-5-fluoro-1H-pyrrolo[2,3-b]pyridin-1-yl)-2-fluoro-N-(methylsulfonyl)benzamide]: half-maximal inhibition (IC50) was put at 40 nM.
As for `Cc1cc(F)ccc1-c1cn(-c2cc(F)c(C(=O)NS(C)(=O)=O)cc2Cl)c2ncc(F)cc12` [Example 212, 5-chloro-2-fluoro-4-(5-fluoro-3-(4-fluoro-2-methylphenyl)-1H-pyrrolo[2,3-b]pyridin-1-yl)-N-(methylsulfonyl)benzamide], under setting [1], the IC50 came to 180 nM.
Still for that read-out and setting: then `CS(=O)(=O)NC(=O)c1cc(Cl)c(-n2cc(-c3ccccc3F)c3cccnc32)cc1F` [Example 213, 5-chloro-2-fluoro-4-(3-(2-fluorophenyl)-1H-pyrrolo[2,3-b]pyridin-1-yl)-N-(methylsulfonyl)benzamide], with 720 nM.
The same measure, in the same setting: then `CS(=O)(=O)NC(=O)c1cc(Cl)c(-n2cc(-c3cccc(F)c3)c3cccnc32)cc1F` [Example 214, 5-chloro-2-fluoro-4-(3-(3-fluorophenyl)-1H-pyrrolo[2,3-b]pyridin-1-yl)-N-(methylsulfonyl)benzamide], with 340 nM; and `Cc1cccc(-c2cn(-c3cc(F)c(C(=O)NS(C)(=O)=O)cc3Cl)c3ncccc23)c1` [Example 215, 5-chloro-2-fluoro-N-(methylsulfonyl)-4-(3-(m-tolyl)-1H-pyrrolo[2,3-b]pyridin-1-yl)benzamide], with 210 nM.
Consider `CS(=O)(=O)NC(=O)c1cc(Cl)c(-n2cc(-c3ccccc3C(F)(F)F)c3cccnc32)cc1F` [Example 216, 5-chloro-2-fluoro-N-(methylsulfonyl)-4-(3-(2-(trifluoromethyl)phenyl)-1H-pyrrolo[2,3-b]pyridin-1-yl)benzamide], for which, under setting [1], the IC50 was 370 nM.
On the same count and under the same terms, the figure for `CS(=O)(=O)NC(=O)c1cc(Cl)c(-n2cc(-c3cccc(C(F)(F)F)c3)c3cccnc32)cc1F` [Example 217, 5-chloro-2-fluoro-N-(methylsulfonyl)-4-(3-(3-(trifluoromethyl)phenyl)-1H-pyrrolo[2,3-b]pyridin-1-yl)benzamide] is 530 nM; for `CS(=O)(=O)NC(=O)c1cc(Cl)c(-n2cc(-c3ccc(C(F)(F)F)cc3)c3cccnc32)cc1F` [Example 218, 5-chloro-2-fluoro-N-(methylsulfonyl)-4-(3-(4-(trifluoromethyl)phenyl)-1H-pyrrolo[2,3-b]pyridin-1-yl)benzamide] it is 290 nM.
For the compound `CS(=O)(=O)NC(=O)c1cc(Cl)c(-n2cc(-c3cc(Cl)ccc3F)c3cccnc32)cc1F` [Example 219, 5-chloro-4-(3-(5-chloro-2-fluorophenyl)-1H-pyrrolo[2,3-b]pyridin-1-yl)-2-fluoro-N-(methylsulfonyl)benzamide], the IC50 under setting [1] was found to be 300 nM.
As for `CS(=O)(=O)NC(=O)c1cc(Cl)c(-n2cc(-c3cc(F)cc(Cl)c3)c3cccnc32)cc1F` [Example 220, 5-chloro-4-(3-(3-chloro-5-fluorophenyl)-1H-pyrrolo[2,3-b]pyridin-1-yl)-2-fluoro-N-(methylsulfonyl)benzamide], the IC50 under setting [1] is 540 nM.
On the same count and under the same terms, then `CS(=O)(=O)NC(=O)c1cc(Cl)c(-n2cc(-c3cccc(Cl)c3)c3cccnc32)cc1F` [Example 221, 5-chloro-4-(3-(3-chlorophenyl)-1H-pyrrolo[2,3-b]pyridin-1-yl)-2-fluoro-N-(methylsulfonyl)benzamide], with 970 nM.
The same measure, in the same setting: then `CS(=O)(=O)NC(=O)c1cc(Cl)c(-n2cc(-c3cccc(Cl)c3F)c3cccnc32)cc1F` [Example 222, 5-chloro-4-(3-(3-chloro-2-fluorophenyl)-1H-pyrrolo[2,3-b]pyridin-1-yl)-2-fluoro-N-(methylsulfonyl)benzamide], with 410 nM.
Same read-out and setting: the figure for `CS(=O)(=O)NC(=O)c1cc(Cl)c(-n2cc(-c3ccc(Cl)c(F)c3)c3cccnc32)cc1F` [Example 223, 5-chloro-4-(3-(4-chloro-3-fluorophenyl)-1H-pyrrolo[2,3-b]pyridin-1-yl)-2-fluoro-N-(methylsulfonyl)benzamide] is 230 nM.
As for `CS(=O)(=O)NC(=O)c1cc(Cl)c(-n2cc(-c3ccc(Cl)cc3)c3cccnc32)cc1F` [Example 224, 5-chloro-4-(3-(4-chlorophenyl)-1H-pyrrolo[2,3-b]pyridin-1-yl)-2-fluoro-N-(methylsulfonyl)benzamide], the IC50 under setting [1] came out at 280 nM.
Same read-out and setting: the figure for `CS(=O)(=O)NC(=O)c1cc(Cl)c(-n2cc(-c3ccccc3Cl)c3cccnc32)cc1F` [Example 225, 5-chloro-4-(3-(2-chlorophenyl)-1H-pyrrolo[2,3-b]pyridin-1-yl)-2-fluoro-N-(methylsulfonyl)benzamide] is 460 nM.
As to `CS(=O)(=O)NC(=O)c1cc(Cl)c(-n2cc(-c3ccc(F)cc3)c3cccnc32)cc1F` [Example 226, 5-chloro-2-fluoro-4-(3-(4-fluorophenyl)-1H-pyrrolo[2,3-b]pyridin-1-yl)-N-(methylsulfonyl)benzamide], the IC50 under setting [1] is 400 nM.
`CS(=O)(=O)NC(=O)c1cc(Cl)c(-n2cc(-c3ccc(F)cc3F)c3cccnc32)cc1F` [Example 229, 5-chloro-4-(3-(2,4-difluorophenyl)-1H-pyrrolo[2,3-b]pyridin-1-yl)-2-fluoro-N-(methylsulfonyl)benzamide]: the IC50 under setting [1] worked out at 180 nM.
The same measure, in the same setting: then `CS(=O)(=O)NC(=O)c1cc(Cl)c(-n2nc(Cl)c3cc(-c4ccccc4)ccc32)cc1F` [Example 230, 5-chloro-4-(3-chloro-5-phenyl-1H-indazol-1-yl)-2-fluoro-N-(methylsulfonyl)benzamide], with 144 nM; and `CS(=O)(=O)NC(=O)c1cc(Cl)c(-n2nc(Cl)c3cc(-c4cccnc4)ccc32)cc1F` [Example 231, 5-chloro-4-(3-chloro-5-(pyridin-3-yl)-1H-indazol-1-yl)-2-fluoro-N-(methylsulfonyl)benzamide], with 3000 to 10000 nM.
On the same count and under the same terms, then `CS(=O)(=O)NC(=O)c1cc(Cl)c(-n2nc(Cl)c3cc(-c4ccncc4)ccc32)cc1F` [Example 232, 5-chloro-4-(3-chloro-5-(pyridin-4-yl)-1H-indazol-1-yl)-2-fluoro-N-(methylsulfonyl)benzamide], with 1000 to 3000 nM.
